Test [1] deals with T1, PARP1 (Homo sapiens (Human), UniProt P09874). The test can be described thus: PARP1 protein expression level in MDA-MB-436 cells. It counts as cell-based. As to conditions: 24 hours. Here is the method: (§1) MDA-MB-436 cells were placed in a complete DMEM medium (supplemented with 15% FBS; 10 μg/mL Insulin; 16 μg/mL Glutathione and 1% penicillin-streptomycin solution), and cultured at 37° C. under CO2-free conditions. The cells in the logarithmic growth phase were collected, the cell density was adjusted to 2×10^5 cells/well with the culture medium, and the cells were added to a 6-well cell culture plate at a volume of 1 mL/well. The compound to be tested was prepared to 2-fold the final concentration, 1 mL of the compounds at different concentrations were added to administration wells, a medium containing 0.2% DMSO was added to control wells, and the plate was incubated for 24 hours at 37° C. The cells were collected into a 1.5 mL centrifuge tube, 25 μL of RIPA lysis buffer (containing 1× protease inhibitor cocktail) was added, and the cells were lysed on ice for 15 minutes and centrifuged at 12000 rpm/min at 4° C. for 10 minutes. The supernatant was collected and the protein content was determined using the BCA method. The protein sample to be tested was diluted to 0.8 mg/mL, PARP1 was detected using a fully automated protein expression quantitative analyzer (ProteinSimple), and the internal reference protein was 3-actin (both antibodies were from CST). The software (Compass for SW) of the fully automated protein expression quantitative analyzer was used to process the raw data and calculate the peak area and the PARP1 expression rate relative to the control group.
as §1, with “L-15” for “DMEM”, “mL/well and cultured overnight. On day 2, the” for “mL/well. The”, “group. DC50 values were calculated using a four-parameter non-linear fitting model in Graphpad 8.3.0 software.” for “group.”

Another test has as its target PARP2 (Homo sapiens (Human), UniProt Q9UGN5). The test can be described thus: PARP2 enzyme activity inhibition (chemiluminescence kit). Type of test: biochemical. As for the experimental part: (§2) PARP1, PARP2 and PARP7 chemical […] detection kits were all purchased from BPS Bioscience. The histone solution in the kit was diluted 5× with 1×PBS, and 25 μL of the diluted histone solution was added to a microwell plate and incubated overnight at 4° C. After the incubation was completed, the plate was washed three times with PBST (0.05% Tween-20). 25 μL of a blocking solution was added to the microwell plate and incubated at 25° C. for 90 minutes. After the incubation was completed, the plate was washed three times with PBST. 2.5 μL of compounds at different concentrations diluted in test buffer and 5 μL of 2.5× substrate mixed solution were added to the microwell plate. PARP1, PARP2 and PARP7 enzymes were diluted to 0.33, 0.23 and 5.00 ng/μL, respectively, 5 μL of the diluent was added to the microwell plate, and the reaction system was incubated at 25° C. for 60 minutes. After the incubation was completed, the plate was washed three times with PBST. […] ELISA ECL substrate A and substrate B were mixed at a ratio of 1:1 (v/v), 25 μL of the mixture was added to the microwell plate, and the chemiluminescence value was read using a BMG microplate reader.
(§3) Curve fitting was performed by four parameters (log(inhibitor) vs. response−Variable slope) using GraphPad Prism software, and the IC50 value was calculated.

The subject of test [2] is breast tumor cells MDA-MB-436. The test can be described thus: MDA-MB-436 cell activity test (CellTiter-Glo, 7 days). It counts as cell-based, human. The settings on record: Homo sapiens. An outline of the steps: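 MDA-MB-436 cells in Leibovitz's L-15 + 10% FBS, 37° C. without CO2, seeded 4000 cells/well overnight, then treated with compound dilutions for 7 days. Viability by CellTiter-Glo luminescence; inhibition relative to solvent control and cell-free blank, IC50 from concentration-response.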
In general terms: Cellular ATP, detected with luciferase, serves as a proxy for viable cell number.

Test [3] has as its target T1, PARP1. The test can be described thus: PARP1 protein expression level in MDA-MB-231 cells. It counts as cell-based. The settings on record: 24 hours. Here is the method: The cells were collected into a 1.5 mL centrifuge tube, 25 μL of RIPA lysis buffer (containing 1× protease inhibitor cocktail) was added, and the cells were lysed on ice for 15 minutes and centrifuged at 12000 rpm/min at 4° C. for 10 minutes. The supernatant was collected and the protein content was determined using the BCA method. […] DC50 values were calculated using a four-parameter non-linear fitting model in Graphpad 8.3.0 software.

Test [4] deals with T1, PARP1. The test can be described thus: PARP1 enzyme activity inhibition (chemiluminescence kit). Type of test: biochemical. Here is the method:
as §2, §3

For another test, the target named is PARP7 (Homo sapiens (Human), UniProt Q7Z3E1). Put plainly: PARP7 enzyme activity inhibition (chemiluminescence kit). It counts as biochemical. Here is the method: as §2, §3

In general, IC50 refers to the midpoint of a concentration-inhibition curve.

T1 sequence (P09874 whole entry): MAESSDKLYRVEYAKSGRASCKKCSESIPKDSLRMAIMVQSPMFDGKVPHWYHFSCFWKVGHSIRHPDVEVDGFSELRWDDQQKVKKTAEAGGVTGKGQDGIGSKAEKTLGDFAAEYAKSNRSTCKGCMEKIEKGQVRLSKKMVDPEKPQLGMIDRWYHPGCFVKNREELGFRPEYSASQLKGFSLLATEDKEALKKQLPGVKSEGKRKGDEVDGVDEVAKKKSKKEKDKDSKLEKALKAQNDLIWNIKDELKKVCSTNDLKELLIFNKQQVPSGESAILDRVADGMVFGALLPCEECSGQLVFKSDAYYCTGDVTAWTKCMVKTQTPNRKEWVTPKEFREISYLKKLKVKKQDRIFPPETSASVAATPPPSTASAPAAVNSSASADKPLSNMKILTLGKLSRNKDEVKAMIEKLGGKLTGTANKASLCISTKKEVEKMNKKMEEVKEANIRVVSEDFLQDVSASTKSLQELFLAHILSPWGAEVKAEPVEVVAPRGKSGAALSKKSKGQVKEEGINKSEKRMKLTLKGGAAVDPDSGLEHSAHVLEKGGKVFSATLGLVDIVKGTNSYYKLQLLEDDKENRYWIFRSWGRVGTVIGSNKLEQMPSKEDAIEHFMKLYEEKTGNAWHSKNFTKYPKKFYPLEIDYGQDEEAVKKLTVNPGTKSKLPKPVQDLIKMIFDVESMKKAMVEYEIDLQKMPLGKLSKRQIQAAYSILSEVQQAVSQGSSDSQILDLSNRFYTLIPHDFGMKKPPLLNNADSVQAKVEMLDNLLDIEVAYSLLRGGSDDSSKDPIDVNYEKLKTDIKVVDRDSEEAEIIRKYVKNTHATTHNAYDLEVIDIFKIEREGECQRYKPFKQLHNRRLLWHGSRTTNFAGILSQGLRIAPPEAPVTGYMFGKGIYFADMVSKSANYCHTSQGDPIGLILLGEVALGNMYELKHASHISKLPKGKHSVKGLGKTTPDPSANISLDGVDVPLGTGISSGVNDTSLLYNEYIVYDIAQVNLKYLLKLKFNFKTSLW
PARP2, sequence (Q9UGN5 whole entry): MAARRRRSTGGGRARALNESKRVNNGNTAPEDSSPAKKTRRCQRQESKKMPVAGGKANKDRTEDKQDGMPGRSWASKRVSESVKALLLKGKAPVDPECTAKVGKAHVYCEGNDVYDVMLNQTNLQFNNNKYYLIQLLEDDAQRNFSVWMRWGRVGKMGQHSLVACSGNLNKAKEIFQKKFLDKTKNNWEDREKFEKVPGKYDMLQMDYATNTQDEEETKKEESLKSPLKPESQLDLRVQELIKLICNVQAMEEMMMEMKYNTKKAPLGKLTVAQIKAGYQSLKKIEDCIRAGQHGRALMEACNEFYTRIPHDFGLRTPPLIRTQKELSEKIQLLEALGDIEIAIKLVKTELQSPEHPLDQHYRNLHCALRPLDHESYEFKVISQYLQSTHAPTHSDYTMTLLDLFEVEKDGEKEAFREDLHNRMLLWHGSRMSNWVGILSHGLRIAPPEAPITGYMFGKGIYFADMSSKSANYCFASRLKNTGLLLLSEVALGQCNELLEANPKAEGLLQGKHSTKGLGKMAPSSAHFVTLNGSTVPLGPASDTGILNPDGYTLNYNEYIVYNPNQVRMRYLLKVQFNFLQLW
PARP7, sequence (Q7Z3E1 whole entry): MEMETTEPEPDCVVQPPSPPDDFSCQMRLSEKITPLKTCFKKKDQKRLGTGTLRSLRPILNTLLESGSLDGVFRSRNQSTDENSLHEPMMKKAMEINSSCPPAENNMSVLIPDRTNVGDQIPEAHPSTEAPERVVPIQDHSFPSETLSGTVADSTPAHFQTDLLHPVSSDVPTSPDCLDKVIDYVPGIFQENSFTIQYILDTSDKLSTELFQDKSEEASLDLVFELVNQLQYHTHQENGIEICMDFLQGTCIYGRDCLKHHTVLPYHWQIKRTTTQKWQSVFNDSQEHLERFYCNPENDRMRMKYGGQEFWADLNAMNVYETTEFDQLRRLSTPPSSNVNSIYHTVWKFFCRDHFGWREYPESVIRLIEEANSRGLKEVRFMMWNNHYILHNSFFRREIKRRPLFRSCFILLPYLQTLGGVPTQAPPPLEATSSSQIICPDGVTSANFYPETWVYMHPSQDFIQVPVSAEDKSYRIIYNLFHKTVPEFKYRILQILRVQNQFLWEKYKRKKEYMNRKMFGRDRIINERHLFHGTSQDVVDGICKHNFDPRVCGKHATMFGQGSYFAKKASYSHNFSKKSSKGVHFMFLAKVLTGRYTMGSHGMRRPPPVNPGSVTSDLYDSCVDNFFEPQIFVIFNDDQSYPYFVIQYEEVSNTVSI

Take `CCc1cc2ncc(CN3CCN(c4ccc(C(=O)NC5CCN(c6ccc7c(c6)C(=O)N(C6CCC(=O)NC6=O)C7=O)CC5)nc4)CC3)cc2[nH]c1=O` (stereo not drawn) [Compound 10, N-(1-(2-(2,6-dioxopiperidin-3-yl)-1,3-dioxoisoindolin-5-yl)piperidin-4-yl)-5-(4-((7-ethyl-6-oxo-5,6-dihydro-1,5-naphthyridin-3-yl)methyl)piperazin-1-yl)picolinamide]: at PARP1 [1] (100 nM), the “PARP1 degradation rate @ 100 nM” value stood at 79%. Moreover, the DC50 at PARP1 [1] turned out to be 0.014 nM; at PARP1 [3], 0.12 nM. The IC50 at PARP2 is 41 nM; in test [2] (MDA-MB-436, 168 h, MDA-MB-436 cells, 7 days incubation, read-out: IC50 (nM), MDA-MB-436 cell inhibitory activity), 36 nM; at PARP1 [4] (PARP1 enzyme), 0.32 nM; against PARP7 it was 91 nM. For the same compound, the inhibition at 10 µM in test [2] (MDA-MB-436, MDA-MB-436 cells, 10 μM, read-out: Max inh. % 10 μM) is 99.8%. At PARP1 [4] (enzyme activities in vitro), the “PARP1 inhibitory selectivity over PARP2 and PARP7” value is given as “good PARP1 inhibitory selectivity”.

The record behind these values is patent US20250222116A1, “PARP-1 DEGRADATION AGENT AND USE THEREOF” (XIZANG HAISCO PHARMACEUTICAL CO., LTD., priority 2021, published 2025).
